Earlier results on nine compounds are cited in patent publication US4410715A, “Process for the epoxidation of olefins using a group V metal co-catalyst I and a phenolic hydrocarbon co-catalyst II” (Exxon Research & Engineering Co., priority 1982, dated 1983).

Structures are written as SMILES.

The conditions of the first series: aqueous solution at 25° C.
Consider `Oc1c(Cl)cccc1Cl` [2,6-DCP, 2,6-dichlorophenol], for which the pKa was 6.8.

For the compound `Cc1ccc(O)cc1` [p-cresol], the pKa is reported as 10.2.

Regarding `COc1ccccc1O` [2-methoxy-phenol, 2-methoxyphenol], the pKa is listed as 10.0.

As to `Oc1ccc(Cl)cc1` [p-chlorophenol], the pKa is on record as 9.2.

On to `Oc1ccc(Cl)cc1Cl` [2,4-DCP, 2,4-dichlorophenol], for which the pKa is 7.7.

Regarding `Oc1ccccc1Cl` [o-chlorophenol], the pKa is 8.5.

With `Oc1cccc(Cl)c1` [m-chlorophenol], the pKa is on record as 8.8.

Regarding `CC(C)(C)c1ccc(O)c(C(C)(C)C)c1` [2,4-di-t-butyl phenol], the pKa is given as 11.6.

The series is the same for the next values; noted with them: in place of a pKa value.
As to `C1COCCO1` [1,4-dioxane, reference compound], the “basicity (footnote to pKa column, in words)” value is reported as “basic”.
